How the values were obtained:
Details in all cases: stereoisomer not certain
[1] = RP, Waters ACQUITY UPLC HSS T3, 100 × 2.1 mm, 50 °C; A: water + 0.1% formic acid, pH 3; B: 30% methanol + 70% acetonitrile + 0.1% formic acid, pH 3; gradient (min/%B) 0/5 1/8 2/15 3/40 4/70 4.5/100 5/100 6.4/100 6.6/5 6.8/5 7/5
[2] = RP, Agilent ZORBAX RRHD Eclipse Plus C18, 50 × 2.1 mm, 1.8 µm, 30 °C, 0.4 mL/min, estimated dead time 0.28 min; A: water + 0.1% formic acid, pH 3; B: acetonitrile + 0.1% formic acid, pH 3; gradient (min/%B) 0/1 5/10 8/25 9.1/99 10/99 12/1
[3] = RP, Merck Supelco SUPELCOSIL LC-C18, 250 × 4.6 mm, 5 µm, 40 °C, 1 mL/min, estimated dead time 2.6 min; A: water + 0.1% trifluoroacetic acid, pH 2; B: acetonitrile + 0.1% trifluoroacetic acid, pH 2; gradient (min/%B) 0/5 45/35 47/75 49/35 50/5
[4] = Other, Phenomenex Kinetex PFP, 100 × 4.6 mm, 5 µm, 45 °C, 0.6 mL/min, estimated dead time 1.8 min; A: water + 0.1% trifluoroacetic acid, pH 2; B: methanol; gradient (min/%B) 0/40 20/72 21/40
[5] = RP, Phenomenex Kinetex EVO C18, 100 × 2.1 mm, 2.6 µm, 40 °C, 0.4 mL/min, estimated dead time 0.55 min; A: water + 0.2% formic acid; B: acetonitrile + 0.2% formic acid; gradient (min/%B) 0/5 0.5/5 7/95 8/95 8.5/5 12/5
[6] = RP, Waters ACQUITY UPLC BEH C18, 100 × 2.1 mm, 1.7 µm, 65 °C, 0.4 mL/min, estimated dead time 0.55 min; A: water + 0.1% formic acid, pH 3; B: 80% acetonitrile + 20% acetone + 0.1% formic acid, pH 3; gradient (min/%B) 0/0 5/100 5.5/0 6/0
[7] = RP, Phenomenex Synergi Hydro-RP, 250 × 2 mm, 4 µm, 25 °C, 0.2 mL/min, estimated dead time 2.5 min; A: water + 0.1% formic acid, pH 3; B: acetonitrile + 0.1% formic acid, pH 3; gradient (min/%B) 0/0.5 7/0.5 12/12.5 25/16.3 47/35 48/65 50/65 50.1/0.5
[8] = RP, Agilent ZORBAX RRHD Eclipse Plus C18, 50 × 2.1 mm, 1.8 µm, 30 °C, 0.4 mL/min, estimated dead time 0.28 min; A: water + 0.1% formic acid, pH 3; B: acetonitrile + 0.1% formic acid, pH 3; gradient (min/%B) 0/1 5/10 8/25 9.1/99 10/99 12/99
[9] = RP, Waters Atlantis T3, 100 × 2.1 mm, 3 µm, 40 °C, 0.3 mL/min, estimated dead time 0.73 min; A: water + 0.1% trifluoroacetic acid, pH 2; B: acetonitrile + 0.1% trifluoroacetic acid, pH 2; gradient (min/%B) 0/10 1/10 6/40 7/50 8/50 14/70 16/80 20/10 25/10
[10] = RP, Merck LiChrospher RP-18, 250 × 4 mm, 5 µm, 35 °C, 0.3 mL/min, estimated dead time 6.7 min; A: water + 0.5% formic acid; B: acetonitrile + 0.5% formic acid; gradient (min/%B) 0/5 10/5 30/15 45/20 65/20 95/54 110/63 115/5 135/5
[11] = RP, Agilent ZORBAX Eclipse XDB-C18, 100 × 2.1 mm, 1.8 µm, 50 °C, 0.4 mL/min, estimated dead time 0.55 min; A: water + 0.1% formic acid, pH 3; B: methanol + 0.1% formic acid, pH 3; gradient (min/%B) 0/2 10/100 14.5/100 14.51/2 16.5/2
[12] = RP, 100 × 0.5 mm, 2.7 µm, 45 °C, 0.015 mL/min, estimated dead time 0.83 min; A: water + 0.9% formic acid; B: acetonitrile + 0.9% formic acid; gradient (min/%B) 0/1 0.5/1 4/95 4.5/1 5/1
[13] = RP, Phenomenex Luna Omega Polar C18, 100 × 2.1 mm, 1.6 µm, 40 °C, 0.5 mL/min, estimated dead time 0.44 min; A: water + 0.5% formic acid; B: acetonitrile + 0.5% formic acid; gradient (min/%B) 0/5 3/50 3.1/100 5/100 5.1/5 7/5
[14] = RP, 50 × 0.5 mm, 2.7 µm, 35 °C, 0.01 mL/min, estimated dead time 0.62 min; A: water + 0.1% formic acid, pH 3; B: acetonitrile + 0.1% formic acid, pH 3; gradient (min/%B) 0/5 12/95 14/95 16/5
[15] = RP, Waters ACQUITY UPLC BEH Shield RP18, 100 × 2.1 mm, 1.7 µm, 30 °C, 0.6 mL/min, estimated dead time 0.37 min; A: water + 0.1% formic acid, pH 3; B: acetonitrile + 0.1% formic acid, pH 3; gradient (min/%B) 0/0 2/0 7/10 22/95 22.1/0 26/0
[16] = RP, Phenomenex Synergi Hydro-RP, 150 × 2 mm, 4 µm, 30 °C, 0.5 mL/min, estimated dead time 0.6 min; A: water + 0.1% formic acid, pH 3; B: acetonitrile + 0.1% formic acid, pH 3; gradient (min/%B) 0/5 1/5 35/45 40/100 45/100
[17] = RP, Phenomenex Luna C18, 150 × 4.6 mm, 3 µm, 25 °C, 0.5 mL/min, estimated dead time 3.2 min; A: water + 0.1% formic acid, pH 3; B: acetonitrile + 0.1% formic acid, pH 3; gradient (min/%B) 0/0 30/30 35/40 50/80 52/80 60/0 65/0
[18] = RP, Waters ACQUITY UPLC HSS T3, 100 × 2.1 mm, 1.8 µm, 30 °C, 0.4 mL/min, estimated dead time 0.55 min; A: water + 0.1% formic acid, pH 3; B: acetonitrile + 0.1% formic acid, pH 3; gradient (min/%B) 0/0 2/0 15/100 22/100 22.1/0 26/0
[19] = RP, Phenomenex Luna Omega Polar C18, 100 × 2.1 mm, 1.6 µm, 40 °C, 0.5 mL/min, estimated dead time 0.44 min; A: water + 0.1% formic acid + 10 mM ammonium formate; B: acetonitrile; gradient (min/%B) 0/5 8/20 10/100 12/100 12.1/5 14/5
[20] = RP, Agilent InfinityLab Poroshell 120 EC-C18, 100 × 3 mm, 2.7 µm, 25 °C, 0.4 mL/min, estimated dead time 1.1 min; A: water + 0.1% formic acid, pH 3; B: acetonitrile + 0.1% formic acid, pH 3; gradient (min/%B) 0/5 10/25 20/40 24/90 25/90 26/5 30/5
[21] = RP, Waters ACQUITY UPLC BEH Shield RP18, 150 × 2.1 mm, 1.7 µm, 40 °C, 0.4 mL/min, estimated dead time 0.83 min; A: water + 0.1% formic acid, pH 3; B: acetonitrile + 0.1% formic acid, pH 3; gradient (min/%B) 0/0 30/50 31/100 37/100 37.1/0
[22] = RP, 150 × 2.1 mm, 2.6 µm, 40 °C, 0.35 mL/min, estimated dead time 0.94 min; A: water + 0.1% formic acid, pH 3; B: acetonitrile + 0.1% formic acid, pH 3; gradient (min/%B) 0/0 1/0 12.5/100 14/100 14.2/0 15/0
[23] = RP, 150 × 2.1 mm, 2.6 µm, 40 °C, 0.35 mL/min, estimated dead time 0.94 min; A: water + 0.1% formic acid, pH 3; B: acetonitrile + 0.1% formic acid, pH 3; gradient (min/%B) 0/0 1/5 7/45 8.5/80 10.5/80 11/5 12/5

Compound	LC retention time [2] [min]	LC retention time [3] [min]	LC retention time [4] [min]	LC retention time [6] [min]	LC retention time [7] [min]	LC retention time [8] [min]	LC retention time [9] [min]	LC retention time [10] [min]	LC retention time [11] [min]	LC retention time [13] [min]	LC retention time [14] [min]	LC retention time [15] [min]	LC retention time [17] [min]	LC retention time [18] [min]	LC retention time [20] [min]	LC retention time [21] [min]	other results
O=C(O)c1ccc(O)cc1 [4-Hydroxybenzoic acid]	3.9	11.3	5.08	1.65	19.9	2.55	3.58	39.7	2.91								LC retention time [1]: 2.8 min; LC retention time [5]: 2.18 min
CC12CCc3occc3C1CCC13CC(CCC12)C(O)(CO)C3 (centres undefined) [Cafestol]				3.19					9.33	2.42	8.2	17.5	50	13.9			LC retention time [12]: 4.04 min; LC retention time [16]: 37.9 min
O=C(C=Cc1ccc(O)c(O)c1)OC1CC(O)(C(=O)O)CC(O)C1O (centres undefined) [Chlorogenic acid]	5.31	13.8	4.03	1.64	20	4.49	3.17	41.1	3.27	1.81	3.38	11	12.3	8.02	5.48	7.05	LC retention time [19]: 3.49 min
O=C(O)c1cc(O)c(O)c(O)c1 [Gallic acid]	1.64	5.2	3	1.5	13.9	0.713	1.56	16.5	1.47	1.15	1.44	2.69	5.35	4.98	2.36	2.41	LC retention time [19]: 1.22 min; LC retention time [5]: 0.96 min
COc1ccc(C2CC(=O)c3c(O)cc(OC4OC(COC5OC(C)C(O)C(O)C5O)C(O)C(O)C4O)cc3O2)cc1O (centres undefined) [Hesperidin]		30.1	9.9				10	75.1						9.62	10.8	13	LC retention time [22]: 6 min; LC retention time [23]: 6.18 min
COc1cc(-c2[o+]c3cc(O)cc(O)c3cc2O)cc(OC)c1O [Malvidin]		35.9	14.3														
Oc1ccc(-c2[o+]c3cc(O)cc(O)c3cc2O)cc1 [Pelargonidin]		33.5	12.9					42									
O=c1c(O)c(-c2ccc(O)c(O)c2)oc2cc(O)cc(O)c12 [Quercetin]	9.04	37.2	16.6	2.63	46.8	9.19	9.34	91						11	14.1	20.4	LC retention time [1]: 3.74 min
CC1OC(OCC2OC(Oc3c(-c4ccc(O)c(O)c4)oc4cc(O)cc(O)c4c3=O)C(O)C(O)C2O)C(O)C(O)C1O (centres undefined) [Rutin]		25.2	8.63		34.1		7.12	59.2							8.79	12.6	
O=C1c2c(O)cc(O)cc2OC(c2ccc(O)c(O)c2)C1O (centres undefined) [Taxifolin]	7.85	23	7.73		33.9	8.66								9.67		12.4	LC retention time [22]: 5.84 min; LC retention time [23]: 5.86 min
Cn1cnc2c1c(=O)[nH]c(=O)n2C [Theobromine]				1.39					2.49	1.45	1.77	4.4	6.29	7.1	3.25	2.67	LC retention time [1]: 2.12 min; LC retention time [12]: 2.05 min
C[n+]1cccc(C(=O)[O-])c1 [Trigonelline]										0.58	0.771	0.62		0.96		1.03	LC retention time [12]: 2.72 min
